Measured values as given in paper PMC5566973 (Frontiers in Pharmacology, 2017).
Where two headings read alike, the source gives them in different places.

Legend:
MDCK cells = experiment: Cytotoxicity CCK-8 assay in MDCK cells; type: cell-based, canine; details: CCK-8
Procedure: (§1) In brief, the cells were seeded on 96-well plates at 1 × 10^5 cells/mL and cultured in 100 μL of culture medium at incubator for 24 h. […] After 12 h incubation, 10 μL of CCK-8 dye was added to each well, and cells were incubated for another 2 h. Cell viability (%) was calculated using the following Equation (1):
(§2) (1) Cell viability (%)=(ODsample−ODblank)/ (ODcontrol−ODblank) ×100%
(§3) ODsample refers to the absorbance of a well with treated cells and CCK-8. ODblank refers to the absorbance of a well with medium and CCK-8 but without cells. ODcontrol refers to the absorbance of a well with untreated cells and CCK-8. The absorbance at 450 nm was measured by a microplate reader (Biotek Instrument; Gene Co., Ltd., VT, USA), and the results are presented as mean ± SD from triplicate wells.

[1] = Cytotoxicity CCK-8 assay in MDCK cells; type: cell-based, canine; details: dog, MDCK cells, 12 h incubation, read-out: Cell viability
Procedure: as §1, §2, §3

[2] = Urinary and fecal excretion in rats; type: in vivo, Sprague-Dawley rats; details: for Cumulative excretion of the analyte, SUM of urine and feces: within 72 h
Procedure: Access to water was maintained all the time. Samples including blank urine and feces before dosing, urine and feces from 0 to 24 h, 24 to 48 h, and 48 to 72 h after dosing were collected and stored at −80°C until analysis.
Urine samples were thawed and an aliquot of 100 μL was processed for detection as described in Section Drug Analysis. Feces were homogenized and then weighed, added 6-folds of acetonitrile, extracted by ultrasonic wave for 1 h and then centrifuged. An aliquot of 100 μL was also processed for detection as described in Section Drug Analysis.

[3] = Pharmacokinetics in rats after intravenous and intragastric administration; details: for bioavailability: F%
Procedure: Fifty-six pathogen-free Sprague-Dawley adult rats comprising 28 males and 28 females (weighing within the range of 200–250 g) were obtained from Drug Safety Evaluation and Research Center of Shanghai University of Traditional Chinese Medicine. Animals were raised under an environmentally controlled breeding room for 7 days before commencing the experiments. Animals were housed in a well-lighted air-conditioned room (25 ± 1°C) under standard environmental conditions (12 h light-dark cycles) and given free access to rodent chow and tap water prior to the study. Rats were fasted for 12 h and provided free access to water prior to the experiments. All animal-use procedures were in accordance with the regulations for animal experimentation issued by the State Committee of Science and Technology of the People's Republic of China on 14 November 1988 and approved by the Animal Ethics Committee of Shanghai University of Traditional Chinese Medicine (No. SUTCM-2011-1107; Approval date: 10 November, 2011).
Forty rats with 20 males and 20 females were randomly divided into five groups of eight rats in each. […] Approximately 0.25 mL of blood sample was collected from the angular vein of each conscious rat and transferred into heparinized tubes at 0 (predose), 0.03, 0.08, 0.25, 0.5, 0.75, 1.0, 2.0, 4.0, 8.0, 12.0, and 24.0 h after administration. Rats had free access to water after 4.0 h of blood sample collection. Serial blood samples were immediately centrifuged at 3,000 rpm for 15 min, and 100 μL of the supernatant plasma layer was transferred into another new 1.5 mL centrifuge tube and stored at −80°C until analysis.
The maximum peak concentration (Cmax) and time of maximum plasma concentration (Tmax) were obtained directly from the observed concentration vs. time data.
(5) F=(AUC0−∞,oral×Doseiv)/(AUC0−∞,iv×Doseoral)×100%

[4] = rats, oral total alkaloid extracts from P. harmala 140 mg/kg; ref Zhang, 2013; Shi et al., 2014; cited from earlier work
[5] = set-up: method as in Zhang, 2013; Shi et al., 2014; details: dogs, oral total alkaloid extracts from P. harmala 140 mg/kg; ref Zhang, 2013; Shi et al., 2014; cited from earlier work
[6] = after oral harmaline 40.0 mg/kg, 24 h
[7] = after oral harmaline 40.0 mg/kg, 48 h
[8] = after oral harmaline 40.0 mg/kg, 72 h
[9] = after oral harmaline 40.0 mg/kg
[10] = both, Sprague-Dawley, rat, in vivo, iv, 3.3 mg/kg
[11] = both, Sprague-Dawley, rat, in vivo, iv, 3.3 mg/kg, rats, i.v. 3.3 mg/kg
[12] = both, Sprague-Dawley, rat, in vivo, po, 40 mg/kg
[13] = both, Sprague-Dawley, rat, in vivo, po, 40 mg/kg, rats, p.o. 40.0 mg/kg
[14] = both, Sprague-Dawley, rat, in vivo, po, 40 mg/kg, rats, p.o. 40.0 mg/kg vs i.v. 3.3 mg/kg
[15] = after oral harmine 40.0 mg/kg, 24 h
[16] = after oral harmine 40.0 mg/kg, 48 h
[17] = after oral harmine 40.0 mg/kg, 72 h
[18] = both, Sprague-Dawley, rat, in vivo, po, 40 mg/kg, rats, harmine p.o. 40.0 mg/kg co-administered with probenecid 20.0 mg/kg
[19] = rats, harmine p.o. 40.0 mg/kg co-administered with probenecid 20.0 mg/kg

For `COc1ccc2c3c([nH]c2c1)C(C)=NCC3` [Harmaline], which “concentration without toxicity or decreased cell viability” value (MDCK cells) is on record?
The value was “up to 25 μM”.

And the “drug concentration producing notable toxicity” value (MDCK cells)?
Its value is “higher than 100 μM”.

And the viability at 12 h ([1]; up to 25 μM)?
The viability at 12 h was > 90%.

What about the “Cumulative excretion in feces (%) of the analyte” value (shortened to “Cumulative excretion in feces (%)”) [2, 6] of the same compound?
Its value is 0.14 ± 0.10%.

And the “Cumulative excretion in urine (%) of the analyte” value (“Cumulative excretion in urine (%)” for short) [2, 6]?
Its value is 4.00 ± 4.36%.

What about the “Cumulative excretion in feces (%)” value [2, 7] of the same compound?
Its value is 0.19 ± 0.12%.

And the “Cumulative excretion in urine (%)” value [2, 7]?
The value was 4.71 ± 4.20%.

What about the “Cumulative excretion in feces (%)” value [2, 8] of the same compound?
The value was 0.19 ± 0.12%.

What about the “Cumulative excretion in urine (%)” value [2, 8] of the same compound?
Its value is 4.85 ± 4.17%.

What about the “Cumulative excretion of the analyte, SUM of urine and feces” value [2, 9] of the same compound?
Its value is 5.05 ± 4.12%.

What about the Vd [3, 10] of the same compound?
Its Vd is 94.1 ± 102 L/kg.

What about the clearance [3, 10] of the same compound?
The clearance was 10.4 L/h/kg.

And the k el [3, 10]?
Its k el is 6.39e-05 s⁻¹.

And the AUC(0-t) [3, 11]?
Its AUC(0-t) is 0.299 ± 0.0643 µg·h/mL.

What about the AUC(0-inf) [3, 11] of the same compound?
Its AUC(0-inf) is 0.307 ± 0.0643 µg·h/mL.

What about the Cmax [3, 11] of the same compound?
Its Cmax is 0.258 ± 0.0649 µg/mL.

What about the MRT [3, 11] of the same compound?
Its MRT is 2.53 ± 1.42 h.

What about the Tmax [3, 11] of the same compound?
The Tmax was 0.03 h.

And the k el [3, 12]?
Its k el is 5.56e-05 s⁻¹.

What about the AUC(0-t) [3, 13] of the same compound?
Its AUC(0-t) is 0.644 ± 0.328 µg·h/mL.

What about the AUC(0-inf) [3, 13] of the same compound?
Its AUC(0-inf) is 0.666 ± 0.322 µg·h/mL.

What about the Cmax [3, 13] of the same compound?
The Cmax was 0.118 ± 0.059 µg/mL.

What about the bioavailability [3, 14] of the same compound?
The bioavailability was 17.1 ± 10.1%.

And the MRT [3, 13]?
The MRT was 6.24 ± 3.18 h.

What about the Tmax [3, 13] of the same compound?
Its Tmax is 1.76 ± 1.11 h.

What about the Ka ([3]; rats, i.v. 3.3 mg/kg) of the same compound?
The Ka was 1.26 ± 0.83 h⁻¹.

What about the T1/2a ([3]; rats, i.v. 3.3 mg/kg) of the same compound?
Its T1/2a is 1.24 ± 1.02 h.

And the T1/2e ([3]; rats, i.v. 3.3 mg/kg)?
The T1/2e was 4.05 ± 1.39 h.

What about the T1/2d ([3]; rats, i.v. 3.3 mg/kg) of the same compound?
The T1/2d was 1.57 ± 1.25 h.

And the CL ([3]; rats, p.o. 40.0 mg/kg)?
Its CL is 74.66925 ± 41.32069 L/h/kg.

What about the Ka ([3]; rats, p.o. 40.0 mg/kg) of the same compound?
The Ka was 0.71 ± 0.38 h⁻¹.

What about the T1/2a ([3]; rats, p.o. 40.0 mg/kg) of the same compound?
Its T1/2a is 1.74 ± 1.13 h.

And the T1/2e ([3]; rats, p.o. 40.0 mg/kg)?
The T1/2e was 5.13 ± 1.52 h.

And the T1/2d ([3]; rats, p.o. 40.0 mg/kg)?
Its T1/2d is 2.40 ± 1.20 h.

And the Vd ([3]; rats, p.o. 40.0 mg/kg)?
Its Vd is 705.97445 ± 595.53126 L/kg.

What about the “F-value (absolute bioavailability)” value [4] of the same compound?
Its value is 63.22%.

What about the “F-value (absolute bioavailability)” value [5] of the same compound?
Its value is 24.99%.

Which results are given for `COc1ccc2c(c1)[nH]c1c(C)nccc12` [Harmine]?
concentration without toxicity or decreased cell viability (MDCK cells): up to 5 μM; drug concentration producing notable toxicity (MDCK cells): > 25 µM; viability at 12 h ([1]; up to 5 μM): > 90%; Cumulative excretion in feces (%) of the analyte [2, 6]: 0.01 ± 0.01%; Cumulative excretion in urine (%) of the analyte [2, 6]: 0.03 ± 0.01%; Cumulative excretion in feces (%) of the analyte [2, 7]: 0.02 ± 0.01%; Cumulative excretion in urine (%) of the analyte [2, 7]: 0.04 ± 0.01%; Cumulative excretion in feces (%) of the analyte [2, 8]: 0.02 ± 0.01%; Cumulative excretion in urine (%) of the analyte [2, 8]: 0.05 ± 0.01%; Cumulative excretion of the analyte, SUM of urine and feces [2, 9]: 0.07 ± 0.01%; Cumulative excretion in feces (%) of the analyte [2, 15]: 0.57 ± 0.37%; Cumulative excretion in urine (%) of the analyte [2, 15]: 0.02 ± 0.02%; Cumulative excretion in feces (%) of the analyte [2, 16]: 0.65 ± 0.36%; Cumulative excretion in urine (%) of the analyte [2, 16]: 0.02 ± 0.03%; Cumulative excretion in feces (%) of the analyte [2, 17]: 0.65 ± 0.36%; Cumulative excretion in urine (%) of the analyte [2, 17]: 0.03 ± 0.03%; Cumulative excretion of the analyte, SUM of urine and feces ([2]; after oral harmine 40.0 mg/kg): 0.69 ± 0.36%; Vd [3, 10]: 10.4 ± 5.75 L/kg; clearance [3, 10]: 2.45 L/h/kg; k el [3, 10]: 8.33e-05 s⁻¹; AUC(0-t) [3, 11]: 1.26 ± 0.238 µg·h/mL; AUC(0-inf) [3, 11]: 1.27 ± 0.239 µg·h/mL; Cmax [3, 11]: 2.32 ± 0.663 µg/mL; MRT [3, 11]: 1.01 ± 0.3 h; Tmax [3, 11]: 0.03 h; k el [3, 12]: 1.39e-05 s⁻¹; AUC(0-t) [3, 18]: 0.292 ± 0.0704 µg·h/mL; AUC(0-t) [3, 13]: 0.154 ± 0.0465 µg·h/mL; AUC(0-inf) [3, 18]: 0.349 ± 0.0767 µg·h/mL; AUC(0-inf) [3, 13]: 0.184 ± 0.0574 µg·h/mL; Cmax [3, 18]: 0.0989 ± 0.0311 µg/mL; Cmax [3, 13]: 0.067 ± 0.0343 µg/mL; bioavailability [3, 18]: 2.14 ± 0.59%; bioavailability [3, 14]: 1.09 ± 0.27%; MRT [3, 18]: 13.7 ± 3.54 h; MRT [3, 13]: 4.41 ± 1.03 h; Tmax [3, 18]: 0.79 ± 0.12 h; Tmax [3, 13]: 0.56 ± 0.13 h; increase of F-value after probenecid co-administration ([3]; rats, harmine p.o. 40.0 mg/kg + probenecid 20.0 mg/kg vs harmine alone): 1.96 folds; CL [3, 19]: 118.00432 ± 24.59981 L/h/kg; Ka [3, 19]: 0.73 ± 0.46 h⁻¹; Vd [3, 19]: 2464.53513 ± 990.15463 L/kg; Ka ([3]; rats, i.v. 3.3 mg/kg): 2.71 ± 1.24 h⁻¹; CL ([3]; rats, p.o. 40.0 mg/kg): 233.43953 ± 56.2046 L/h/kg; Ka ([3]; rats, p.o. 40.0 mg/kg): 0.63 ± 0.42 h⁻¹; Vd ([3]; rats, p.o. 40.0 mg/kg): 4761.64239 ± 1571.7721 L/kg; F-value (absolute bioavailability) [4]: 4.96%; F-value (absolute bioavailability) [5]: 5.33%
